Type in all cases: cell-based, human
One experiment has as its system Bladder HT-1197. The experiment can be described thus: CellTiter Glo cell viability assay. The note with it: Homo sapiens, HT1197; HT-1197/CRL-1473; 11 dilutions 3-0.00001 μM; read-out: IC50. The protocol:
(§1) 1.7*10^3 cells/well were seeded in quadruplicates in 96-well plate after plating. Drugs were added at 5 μM and 2-fold dilutions over 18 concentrations (0.000038146-5 […] range) to generate a dose-response curve. Cell growth was assessed on day 1, 3 and 5 after drug treatments using the CellTiter Glo Luminescence Cell Viability Assay (Promega) according to manufacturer's protocol. Thermo Scientific Varioskan LUX Multimode Microplate instrument was used for plate reading. Data are expressed as mean luminescence (arbitrary units) ±S.D.
(§2) Cell Viability Assays were employed to determine the concentration of Compound 1 (KYN-001) and analogues where the response is reduced by half. For each treatment of cancer cells, 1, 2, 5, 10 and 20 μM solutions of compounds were applied. GraphPad Prism 7 software was used to fit dose response curves. Relative Luminescence Units were plotted against the log values of the doses used and the nonlinear regression model was used for data analysis.
(§3) The protocol for cell proliferation was optimized for Compound 8 (KYN-119) to enable a more accurate assessment of its low IC50 value. In this protocol, 18 dosages (2 fold dilutions ranging from 0.000038146 to 5 μM) were applied to cells seeded in 96-well plates, and Luminescence was measured after 1, 3 and 5 days upon treatments.
(In general: Cellular ATP, detected with luciferase, serves as a proxy for viable cell number.)

The subject of a further experiment is Liver SNU-398. The experiment can be described thus: CellTiter Glo cell viability assay. As to conditions: Homo sapiens; SNU-398/CRL-2233; 11 dilutions 3-0.00001 μM; read-out: IC50. On the procedure:
as §1, §2, §3

Another experiment relates to Liver HepG2. As to the kind of experiment: CellTiter Glo cell viability assay. As to conditions: Homo sapiens, HepG2; Hep G2/HB-8065; 11 dilutions 3-0.00001 μM; read-out: IC50. On the procedure:
as §1, §2, §3

A further experiment deals with Pancreatic HPAFII. The experiment can be described thus: CellTiter Glo cell viability assay. As to conditions: Homo sapiens; HPAF-II/CRL-1997; 11 dilutions 3-0.00001 μM; read-out: IC50. The protocol:
as §1, §2, §3

In a further experiment the test system is Pancreatic BxPC3. As to the kind of experiment: CellTiter Glo cell viability assay. As to conditions: Homo sapiens; BxPC-3/CRL-1687; 11 dilutions 3-0.00001 μM; read-out: IC50. On the procedure:
as §1, §2, §3

A further experiment deals with Tongue UPCI: SCC090. The experiment can be described thus: CellTiter Glo cell viability assay. As to conditions: Homo sapiens; UPCI: SCC090/CRL-3239; 11 dilutions 3-0.00001 μM; read-out: IC50. The protocol:
as §1, §2, §3

In another experiment the test system is Bladder T24. As to the kind of experiment: CellTiter Glo cell viability assay. The note with it: Homo sapiens; T24/HTB-4; 11 dilutions 3-0.00001 μM; read-out: IC50. The protocol: as §1, §2, §3
In the next experiment the test system is Bladder UMUC_3. As to the kind of experiment: CellTiter Glo cell viability assay. The note with it: Homo sapiens, UMUC3; UM-UC-3/CRL-1749; 11 dilutions 3-0.00001 μM; read-out: IC50. The protocol:
as §1, §2, §3

A further experiment has as its system Lung NCI-H1437. The experiment can be described thus: CellTiter Glo cell viability assay. The note with it: Homo sapiens; NCI-H1437/CRL-5872; 11 dilutions 3-0.00001 μM; read-out: IC50. The protocol:
as §1, §2, §3

Another experiment deals with Lung NCI-H2126. The experiment can be described thus: CellTiter Glo cell viability assay. The note with it: Homo sapiens; NCI-H2126/CCL-256; 11 dilutions 3-0.00001 μM; read-out: IC50. The protocol: as §1, §2, §3
Another experiment deals with Pharynx FADU. As to the kind of experiment: CellTiter Glo cell viability assay. As to conditions: Homo sapiens; Fadu/HTB-43; 11 dilutions 3-0.00001 μM; read-out: IC50. The protocol:
as §1, §2, §3

Another experiment relates to Pharynx DETROIT. As to the kind of experiment: CellTiter Glo cell viability assay. As to conditions: Homo sapiens; Detroit 562/CCL-138; 11 dilutions 3-0.00001 μM; read-out: IC50. On the procedure:
as §1, §2, §3

The test system of the next experiment is Tongue SCC-4. As to the kind of experiment: CellTiter Glo cell viability assay. The note with it: Homo sapiens; SCC-4/CRL-1624; 11 dilutions 3-0.00001 μM; read-out: IC50. The protocol: as §1, §2, §3
The next experiment relates to Bladder SCABER. As to the kind of experiment: CellTiter Glo cell viability assay. As to conditions: Homo sapiens; SCaBER/HTB-3; 11 dilutions 3-0.00001 μM; read-out: IC50. On the procedure:
as §1, §2, §3

Experiment [1] deals with Hypo-pharynx UPCI: SCC152. As to the kind of experiment: CellTiter Glo cell viability assay. As to conditions: Homo sapiens; UPCI: SCC152/CRL-3240; 11 dilutions 3-0.00001 μM; read-out: IC50. On the procedure: as §1, §2, §3
Another experiment relates to Osteosarcomas SAOS-2. The experiment can be described thus: CellTiter Glo cell viability assay. The note with it: Homo sapiens; Saos-2/HTB-85; 11 dilutions 3-0.00001 μM; read-out: IC50. The protocol:
as §1, §2, §3

The next experiment has as its system Pancreatic PANC-1. As to the kind of experiment: CellTiter Glo cell viability assay. As to conditions: Homo sapiens; PANC-1/CRL-1469; 11 dilutions 3-0.00001 μM; read-out: IC50. The protocol: as §1, §2, §3
For experiment [2], the system named is Cancer cells including pancreatic, bladder, kidney, colon, breast, lung, liver and osteosarcomas. As to the kind of experiment: CellTiter Glo cell viability assay, panel of cancer cell lines. As to conditions: SAR discussion based on IC50 values in Tables 1 to 5; compared with 1 [KYN-001]. Summed up:
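Cells (1.7*10^3/well) were seeded in quadruplicate and treated with 2-fold dilutions over 18 concentrations up to 5 μM, or with 1, 2, 5, 10 and 20 μM. Viability was read by CellTiter Glo luminescence on days 1, 3 and 5; half-maximal concentrations came from nonlinear regression of RLU versus log dose.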

By IC50 is commonly meant the concentration at which inhibition is half-maximal. For `COc1cc(/C=C/c2cc(O)cc(OC)c2CC=C(C)C)ccc1NC=O` [Compound 27, (E)-N-(4-(5-hydroxy-3-methoxy-2-(3-methylbut-2-en-1-yl)styryl)-2-methoxyphenyl)formamide], the IC50 in the experiment on Bladder HT-1197 stood at 17.1 nM; in the experiment on Liver SNU-398, 54 nM; in the experiment with Liver HepG2, 251 nM; in the experiment with Pancreatic HPAFII, 102 nM; with Pancreatic BxPC3, 302 nM; with Tongue UPCI: SCC090, 20 nM. Besides, the IC50 is 32.5 nM in the experiment with Bladder T24; 30.2 nM with Bladder UMUC_3; 32.2 nM in the experiment on Lung NCI-H1437; 31 nM in the experiment with Lung NCI-H2126; 28.6 nM with Pharynx FADU; 20.3 nM with Pharynx DETROIT. The IC50 with Tongue SCC-4 was found to be 11.4 nM; in the experiment with Bladder SCABER, 10.9 nM; in experiment [1], 36.6 nM; with Osteosarcomas SAOS-2, 42.4 nM; in the experiment with Pancreatic PANC-1, 28.8 nM.
Turning to `CCOc1cc(O)cc(/C=C/c2ccc(NC=O)c(OC)c2)c1CC=C(C)C` [Compound 28, (E)-N-(4-(3-Ethoxy-5-hydroxy-2-(3-methylbut-2-en-1-yl)styryl)-2-methoxyphenyl)formamide], in experiment [2], the “Cancer cell viability inhibition, statement in words” value is reported as “much enhanced inhibition”. Moreover, the IC50 with Bladder HT-1197 came to 12.2 nM; in the experiment on Liver SNU-398 it was 32.7 nM; in the experiment with Liver HepG2, 99.1 nM; in the experiment on Pancreatic HPAFII it was 111 nM; with Pancreatic BxPC3, 175 nM; with Tongue UPCI: SCC090, 56.1 nM. For the same molecule, the IC50 worked out at 22.1 nM with Bladder T24; 21.3 nM in the experiment on Bladder UMUC_3; 25.9 nM with Lung NCI-H1437; 10.7 nM in the experiment on Lung NCI-H2126; 11.8 nM in the experiment on Pharynx FADU; 11.4 nM in the experiment on Pharynx DETROIT. Moreover, the IC50 in the experiment with Tongue SCC-4 is 3.1 nM; in the experiment on Bladder SCABER, 6 nM; in experiment [1], 20.5 nM; in the experiment with Osteosarcomas SAOS-2, 23.3 nM; in the experiment on Pancreatic PANC-1, 17.8 nM.

The record behind these values is patent US20260209152A1, “Substituted Hydroxystilbene Compounds and Derivatives, Synthesis and Uses Thereof” (Kynan Duke IP, LLC, priority 2019, published 2026).
